# Measurements: ChEMBL document CHEMBL1150567, “Three new phenolic compounds from a manipulated plant cell culture, Mirabilis jalapa” (J Nat Prod, 2001)
# Experiments:
# [1] = tested on: Candida albicans; test: Antifungal activity against MDR knockout Candida albicans DSY1024 after 24 hrs by XTT assay; format: functional, organism-based; details: DSY1024, 24 h
# [2] = tested on: Candida albicans; test: Antifungal activity against wild type Candida albicans SC5314 after 24 hrs by XTT assay; format: functional, organism-based; details: SC5314, 24 h
SMILES,IC50 [1] [µg/mL],IC50 [2] [µg/mL]
O=c1c(-c2ccc(O)cc2)coc2cc(O)ccc12 [DAIDZEIN],> 100,> 100
O=c1c(-c2ccc(O)cc2)coc2cc(O)cc(O)c12 [GENISTEIN],> 100,> 100
COc1cc2oc3c(c(=O)c2c(O)c1C)-c1cccc(O)c1OC3O (stereo unspecified) [9-O-METHYL-4-HYDROXYBOERAVINONE B],48,> 200
COc1ccccc1-c1coc2cc(O)c(C)c(O)c2c1=O,25,16
OC(Cn1cncn1)(Cn1cncn1)c1ccc(F)cc1F [FLUCONAZOLE],6.7,0.18
COc1ccc(-c2coc3cc(O)cc(O)c3c2=O)cc1 [BIOCHANIN],> 100,> 100
COc1cc2c(c(O)c1C)C(=O)[C@@]1(O)c3cccc(O)c3O[C@@H](OC)[C@@H]1O2,> 200,> 200
C[C@@H]1[C@H](O)[C@@H](C)/C=C/C=C/C=C/C=C/C=C/C=C/C=C/[C@H](O[C@@H]2O[C@H](C)[C@@H](O)[C@H](N)[C@@H]2O)C[C@@H]2O[C@](O)(C[C@@H](O)C[C@@H](O)[C@H](O)CC[C@@H](O)C[C@@H](O)CC(=O)O[C@H]1C)C[C@H](O)[C@H]2C(=O)O [AMPHOTERICIN B],0.19,0.15
